This is an account of results in publication PMC4857387, “The Arabidopsis NPF3 protein is a GA transporter” (Nature Communications, 2016).

One series has as its target T1, NPF4.1 (AIT3) (Arabidopsis thaliana, UniProt Q9LSF0).
T1 sequence (Q9LSF0 1-515): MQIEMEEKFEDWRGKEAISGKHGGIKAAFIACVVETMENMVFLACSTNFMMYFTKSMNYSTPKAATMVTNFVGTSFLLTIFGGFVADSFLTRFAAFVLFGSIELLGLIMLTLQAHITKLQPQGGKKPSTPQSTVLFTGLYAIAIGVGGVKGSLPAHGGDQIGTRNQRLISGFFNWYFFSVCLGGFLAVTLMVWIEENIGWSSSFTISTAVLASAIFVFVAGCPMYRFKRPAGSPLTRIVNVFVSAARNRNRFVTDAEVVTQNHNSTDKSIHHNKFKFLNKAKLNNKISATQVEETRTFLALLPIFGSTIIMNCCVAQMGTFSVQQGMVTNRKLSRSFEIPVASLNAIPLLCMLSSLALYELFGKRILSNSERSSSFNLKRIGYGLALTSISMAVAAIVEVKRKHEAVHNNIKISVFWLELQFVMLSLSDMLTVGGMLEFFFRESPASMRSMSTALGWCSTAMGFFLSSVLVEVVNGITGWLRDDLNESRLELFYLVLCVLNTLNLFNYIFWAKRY
Kind of series: competition of GA4 uptake in Xenopus oocytes, LC-MS. Particulars: 300 uM GA4 with 5 mM JA-Ile. It counts as cell-based.

Substrate in series [1]: C=C1C[C@]23C[C@H]1CC[C@H]2[C@@]12CC[C@H](O)[C@@](C)(C(=O)O1)[C@H]2[C@@H]3C(=O)O
In words: uptake into Xenopus oocytes, LC-MS. It counts as cell-based, Arabidopsis thaliana. The note with it: pH 5, 60 min incubation, diffusion into non-injected oocytes subtracted, judged by authors a likely overestimation.

As to `CC/C=C\C[C@H]1C(=O)CC[C@@H]1CC(=O)N[C@H](C(=O)O)[C@@H](C)CC` [JA-Ile], the “inhibition of GA4 uptake at 5 mM” value at NPF4.1 (AIT3) was “JA-Ile strongly inhibited GA4 uptake”.

B1: NPF3 (NPF3.1, AtNPF3.1) (Arabidopsis thaliana) (protein)
chain: MEEQSKNKISEEEKQLHGRPNRPKGGLITMPFIFANEICEKLAVVGFHANMISYLTTQLHLPLTKAANTLTNFAGTSSLTPLLGAFIADSFAGRFWTITFASIIYQIGMTLLTISAIIPTLRPPPCKGEEVCVVADTAQLSILYVALLLGALGSGGIRPCVVAFGADQFDESDPNQTTKTWNYFNWYYFCMGAAVLLAVTVLVWIQDNVGWGLGLGIPTVAMFLSVIAFVGGFQLYRHLVPAGSPFTRLIQVGVAAFRKRKLRMVSDPSLLYFNDEIDAPISLGGKLTHTKHMSFLDKAAIVTEEDNLKPGQIPNHWRLSTVHRVEELKSVIRMGPIGASGILLITAYAQQGTFSLQQAKTMNRHLTNSFQIPAGSMSVFTTVAMLTTIIFYDRVFVKVARKFTGLERGITFLHRMGIGFVISIIATLVAGFVEVKRKSVAIEHGLLDKPHTIVPISFLWLIPQYGLHGVAEAFMSIGHLEFFYDQAPESMRSTATALFWMAISIGNYVSTLLVTLVHKFSAKPDGSNWLPDNNLNRGRLEYFYWLITVLQAVNLVYYLWCAKIYTYKPVQVHHSKEDSSPVKEELQLSNRSLVDE
notes: putative 12 transmembrane domains
For the molecule B1, the Km (in general, the concentration of substrate that gives half-maximal velocity) in series [1] was 500 µM.
